The target in one assay is hERG potassium channels (Homo sapiens, UniProt Q12809). Kind of assay: In vitro hERG assay (SyncroPatch whole-cell recording). As to conditions: room temperature.
In another assay the test system is H3K9me2 in HCT116 cells. Kind of assay: HCT116 H3K9me2 in-cell western assay. Format: cell-based. The conditions noted are these: Homo sapiens, HCT-116, 72 h, HCT116 cells, 72 hours incubation; read-out: H3K9me2 ICW IC50. A digest of the protocol:
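HCT116 cells (2,000/well) were treated for 72 h at 37° C, 5% CO2, with ten two-fold dilutions from 10 μM in duplicate. After PFA fixation, cells were stained overnight at 4° C with anti-H3K9me2, then with an 800 CW secondary plus DRAQ5.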

In another assay the target is T1, human EHMT2 913-1193 (Homo sapiens, UniProt Q96KQ7).
T1 sequence (Q96KQ7 913-1193): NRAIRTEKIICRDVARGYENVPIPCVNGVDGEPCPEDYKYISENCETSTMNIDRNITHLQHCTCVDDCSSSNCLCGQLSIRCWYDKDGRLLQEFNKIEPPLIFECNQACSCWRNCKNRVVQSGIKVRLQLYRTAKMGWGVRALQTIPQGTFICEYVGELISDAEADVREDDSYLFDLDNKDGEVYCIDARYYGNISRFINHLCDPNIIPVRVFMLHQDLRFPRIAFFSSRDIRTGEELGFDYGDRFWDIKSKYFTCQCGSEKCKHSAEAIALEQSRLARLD
The assay is described as follows: EHMT2 enzyme assay on histone peptide substrate (3H-SAM SPA). The conditions noted are these: EHMT2 IC50, recombinant human EHMT2 913-1193, histone peptide substrate.

Another assay has as its target T2, human EHMT1 982-1266 (Homo sapiens, UniProt Q9H9B1).
T2 sequence (Q9H9B1 982-1266): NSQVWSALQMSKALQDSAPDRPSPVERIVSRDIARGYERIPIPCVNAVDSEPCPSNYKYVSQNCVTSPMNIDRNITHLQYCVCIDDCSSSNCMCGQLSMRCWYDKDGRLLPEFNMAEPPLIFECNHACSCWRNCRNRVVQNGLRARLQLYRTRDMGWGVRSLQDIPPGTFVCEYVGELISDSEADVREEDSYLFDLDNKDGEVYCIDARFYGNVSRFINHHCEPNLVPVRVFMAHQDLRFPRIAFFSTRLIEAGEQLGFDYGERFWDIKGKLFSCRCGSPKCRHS
The assay is described as follows: EHMT1 enzyme assay on histone peptide substrate (3H-SAM SPA). The conditions noted are these: EHMT1 IC50, recombinant human EHMT1 982-1266, histone peptide substrate.

[1] abbreviates: hERG IC50, CHO cells stably expressing hERG.

The structures appear in SMILES notation.

Our source for the IC50 values is US20240368139A1, “NOVEL MODULATORS OF EHMT1 AND EHMT2 AND THERAPEUTIC USE THEREOF” (Tango Therapeutics, Inc., priority 2021, published 2024).

hERG potassium channels, sequence (Q12809 whole entry): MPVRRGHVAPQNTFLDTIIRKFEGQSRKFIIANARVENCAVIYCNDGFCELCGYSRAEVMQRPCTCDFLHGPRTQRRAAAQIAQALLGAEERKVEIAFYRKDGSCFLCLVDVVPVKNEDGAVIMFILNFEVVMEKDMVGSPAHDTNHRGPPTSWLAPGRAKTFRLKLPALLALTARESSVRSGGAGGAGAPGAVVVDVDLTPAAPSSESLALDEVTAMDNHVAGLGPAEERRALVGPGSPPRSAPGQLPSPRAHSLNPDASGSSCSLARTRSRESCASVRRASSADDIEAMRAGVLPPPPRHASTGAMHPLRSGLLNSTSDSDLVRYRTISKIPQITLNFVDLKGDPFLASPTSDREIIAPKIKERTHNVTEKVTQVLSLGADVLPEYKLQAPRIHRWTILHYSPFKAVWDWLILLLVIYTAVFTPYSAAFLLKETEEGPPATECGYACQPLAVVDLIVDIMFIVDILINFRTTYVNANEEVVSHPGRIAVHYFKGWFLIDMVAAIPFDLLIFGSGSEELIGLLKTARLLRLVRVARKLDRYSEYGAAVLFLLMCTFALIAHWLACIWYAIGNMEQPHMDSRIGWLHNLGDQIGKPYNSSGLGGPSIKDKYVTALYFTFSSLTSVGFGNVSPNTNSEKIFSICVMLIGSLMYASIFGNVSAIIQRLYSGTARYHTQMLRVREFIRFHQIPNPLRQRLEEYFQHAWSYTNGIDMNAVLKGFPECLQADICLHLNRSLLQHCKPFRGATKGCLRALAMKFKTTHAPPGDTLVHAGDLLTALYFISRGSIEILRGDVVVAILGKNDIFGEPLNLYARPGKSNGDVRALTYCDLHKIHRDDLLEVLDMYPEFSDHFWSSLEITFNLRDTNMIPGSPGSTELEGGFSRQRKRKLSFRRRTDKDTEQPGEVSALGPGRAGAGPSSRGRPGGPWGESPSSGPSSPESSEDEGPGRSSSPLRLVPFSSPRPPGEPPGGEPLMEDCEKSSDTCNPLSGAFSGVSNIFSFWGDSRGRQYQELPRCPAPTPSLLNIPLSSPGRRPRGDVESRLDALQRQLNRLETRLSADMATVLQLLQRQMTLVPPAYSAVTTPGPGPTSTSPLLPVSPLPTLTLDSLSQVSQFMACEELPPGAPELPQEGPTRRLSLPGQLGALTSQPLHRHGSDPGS
Description for hERG potassium channels: CHO cells stably expressing hERG potassium channels from Sophion Biosciences were used for this test. The cells were cultured in a humidified and air-controlled (5% CO2) incubator at 37° C.
The CHO hERG Culture Medium consisted of 500 mL Ham's F12 (Invitrogen), 50 mL FBS (HyClone), 1 mL G418/Geneticin (Invitrogen, and 1 mL Hygromycin B (Invitrogen)
The CHO cells which were at least two days after plating and more than 75% confluent would be used for experiments. Before testing, cells were harvested using TrypLE and resuspended in the physiological solution at the room temperature.
For the electrophysiological recordings the following solutions were used (Table 5). The physiological solution and external solution were prepared at least one month. The intracellular solution was prepared in batches aliquoted, and stored at 4° C. until used.
Test compounds were dissolved in 100% DMSO to obtain stock solutions for different test concentrations. Then the stock solutions were further diluted into external solution to achieve final concentrations for testing. Visual check for precipitation was conducted before testing. Final DMSO concentration in external solution was not more than 0.30% for the test compounds.
Voltage command protocol: From this holding potential of −80 mV, the voltage was first stepped to −50 mV for 80 ms for leak subtraction, and then stepped to +20 mV for 4800 ms to open hERG channels. After that, the voltage was stepped back down to −50 mV for 5000 ms, causing a “rebound” or tail current, which was measured and collected for data analysis. Finally, the voltage was stepped back to the holding potential (−80 mV, 1000 ms). This voltage command protocol was repeated every 20000 msec. This command protocol was performed continuously during the test (vehicle control and test compound).
hERG SyncroPatch assay was conducted at room temperature. The Setup, Prime Chip, Catch and Seal Cells, Amplifier Settings, Voltage and Application Protocols were established with Biomek Software (Nanion). One addition of 40 μL of the vehicle was applied, followed by 300s for a baseline period. Then the doses of the compounds were added with 40 μL. The exposure of test compound at each concentration was no less than 300s. […] Five concentrations (0.30 μM, 1.00 μM, 3.00 μM, 10.00 μM and 30.00 μM) were tested for each compound. Minimum 2 replicates per concentration were obtained.
Within each well recording, percent of control values were calculated for each test compound concentration current response based on peak current in presence of reference control (current response/peak current)×100%. The Dose-Response curves were fit to the standard Hill equation as shown below:
Where X is the logarithm of concentration, Ipost cpd/Ipre cpa is the normalized peak current amplitude, Top is 1 and Bottom is equal to 0.
Curve-fitting and IC50 calculations were performed by GraphPad Prism 5.0.

In general, IC50 refers to the midpoint of a concentration-inhibition curve. With `CNc1cc(C)nc(Nc2cc3c(c(C4=CCNCCC4)c2)OCC3)n1` [Compound 110, N4,6-dimethyl-N2-[7-(2,3,4,7-tetrahydro-1H-azepin-5-yl)-2,3-dihydrobenzofuran-5-yl]pyrimidine-2,4-diamine], the half-maximal inhibitory concentration (IC50) against hERG potassium channels (setting [1]) is over 10 µM; on hERG potassium channels (hERG IC50, SyncroPatch), over 10 µM; with H3K9me2 in HCT116 cells, under 100 nM; on human EHMT2 913-1193 it was under 100 nM; on human EHMT1 982-1266, under 100 nM.

As to `CNc1cc(C)nc(Nc2cc3c(c(C4=CCN(C)CCC4)c2)OCC3)n1` [Compound 111, N4,6-dimethyl-N2-[7-(1-methyl-2,3,4,7-tetrahydroazepin-5-yl)-2,3-dihydrobenzofuran-5-yl]pyrimidine-2,4-diamine], the IC50 against hERG potassium channels (setting [1]) is over 10 µM; against hERG potassium channels (hERG IC50, SyncroPatch) it was over 10 µM; in the assay with H3K9me2 in HCT116 cells it was under 100 nM; at human EHMT2 913-1193, under 100 nM; at human EHMT1 982-1266 it was under 100 nM.

Turning to `CNc1cc(C)nc(Nc2cc3c(c(OCCCN4CCCC4)c2)OCCC3)n1` [Compound 113, N4,6-dimethyl-N2-[8-(3-pyrrolidin-1-ylpropoxy)chroman-6-yl]pyrimidine-2,4-diamine], the 50% inhibitory concentration (IC50) at hERG potassium channels (hERG IC50, SyncroPatch) is under 2 µM; in the assay with H3K9me2 in HCT116 cells, 100 to 500 nM; on human EHMT2 913-1193, 500 to 2000 nM; on human EHMT1 982-1266, 100 to 500 nM.

On to `CNc1cc(C)nc(Nc2cc(OCCCN3CCCC3)c3c(c2)OCO3)n1` [Compound 118, N4,6-dimethyl-N2-[7-(3-pyrrolidin-1-ylpropoxy)-1,3-benzodioxol-5-yl]pyrimidine-2,4-diamine], for which the IC50 lay within 5 to 10 µM against hERG potassium channels (hERG IC50, SyncroPatch); 100 to 500 nM with H3K9me2 in HCT116 cells; 500 to 2000 nM at human EHMT2 913-1193; 100 to 500 nM on human EHMT1 982-1266.

Consider `CNc1cc(C)nc(Nc2cc(OCCCN3CCCC3)c3c(c2)OCCO3)n1` [Compound 122, N4,6-dimethyl-N2-[5-(3-pyrrolidin-1-ylpropoxy)-2,3-dihydro-1,4-benzodioxin-7-yl]pyrimidine-2,4-diamine], for which the IC50 lay within 2 to 5 µM against hERG potassium channels (hERG IC50, SyncroPatch); 100 to 500 nM in the assay on H3K9me2 in HCT116 cells; 100 to 500 nM at human EHMT2 913-1193; 100 to 500 nM on human EHMT1 982-1266.

Regarding `CNc1cc(C)nc(Nc2cc3c(c(C4=CCNCCC4)c2)OCCO3)n1` [Compound 130, N4,6-dimethyl-N2-[5-(2,3,4,7-tetrahydro-1H-azepin-5-yl)-2,3-dihydro-1,4-benzodioxin-7-yl]pyrimidine-2,4-diamine], the 50% inhibitory concentration (IC50) against hERG potassium channels (hERG IC50, SyncroPatch) was 2 to 5 µM; with H3K9me2 in HCT116 cells, under 100 nM; on human EHMT2 913-1193, under 100 nM; on human EHMT1 982-1266, under 100 nM.

As to `CNc1cc(C)nc(Nc2cc3c(c(C4=CCN(C)CCC4)c2)OCCO3)n1` [Compound 131, N4,6-dimethyl-N2-[5-(1-methyl-2,3,4,7-tetrahydroazepin-5-yl)-2,3-dihydro-1,4-benzodioxin-7-yl]pyrimidine-2,4-diamine], the half-maximal inhibitory concentration (IC50) on hERG potassium channels (hERG IC50, SyncroPatch) was 5 to 10 µM; with H3K9me2 in HCT116 cells it was under 100 nM; at human EHMT2 913-1193 it was 100 to 500 nM; on human EHMT1 982-1266, under 100 nM.

As to `CNc1cc(C)nc(Nc2cc3c(c(C4=CCNCCC4)c2)OCO3)n1` [Compound 137, N4,6-dimethyl-N2-[7-(2,3,4,7-tetrahydro-1H-azepin-5-yl)-1,3-benzodioxol-5-yl]pyrimidine-2,4-diamine], the half-inhibitory concentration (IC50) against hERG potassium channels (hERG IC50, SyncroPatch) was 5 to 10 µM; in the assay with H3K9me2 in HCT116 cells, under 100 nM; on human EHMT2 913-1193 it was under 100 nM; at human EHMT1 982-1266, under 100 nM.

Regarding `CNc1cc(C)nc(Nc2cc3c(c(C4=CCNCCC4)c2)OC(F)(F)O3)n1` [Compound 142, N2-[2,2-difluoro-7-(2,3,4,7-tetrahydro-1H-azepin-5-yl)-1,3-benzodioxol-5-yl]-N4,6-dimethyl-pyrimidine-2,4-diamine], the IC50 against hERG potassium channels (hERG IC50, SyncroPatch) was under 2 µM; in the assay with H3K9me2 in HCT116 cells it was 100 to 500 nM; on human EHMT2 913-1193, under 100 nM; at human EHMT1 982-1266, under 100 nM.

Regarding `CNc1cc(C)nc(Nc2cc3c(c(C4=CCNCCC4)c2)OCCO3)c1` [Compound 144, N4,6-dimethyl-N2-[5-(2,3,4,7-tetrahydro-1H-azepin-5-yl)-2,3-dihydro-1,4-benzodioxin-7-yl]pyridine-2,4-diamine], the IC50 was over 10 µM against hERG potassium channels (hERG IC50, SyncroPatch); 100 to 500 nM with H3K9me2 in HCT116 cells; 100 to 500 nM on human EHMT2 913-1193; 100 to 500 nM on human EHMT1 982-1266.

Take `CNc1cc(C)nc(Nc2cc3c(c([C@H]4C[C@H]5CNC[C@H]5C4)c2)OCC3)n1` [Compound 157, N2-[7-(1,2,3,3a,4,5,6,6a-octahydrocyclopenta[c]pyrrol-5-yl)-2,3-dihydrobenzofuran-5-yl]-N4,6-dimethyl-pyrimidine-2,4-diamine]: the IC50 on hERG potassium channels (hERG IC50, SyncroPatch) was over 10 µM; in the assay on H3K9me2 in HCT116 cells, 100 to 500 nM; at human EHMT2 913-1193, 100 to 500 nM; at human EHMT1 982-1266, 100 to 500 nM.

With `CNc1cc(C)nc(Nc2cc3c(c(C4=CCNCCC4)c2Cl)OCO3)n1` [Compound 160, N2-[6-chloro-7-(2,3,4,7-tetrahydro-1H-azepin-5-yl)-1,3-benzodioxol-5-yl]-N4,6-dimethyl-pyrimidine-2,4-diamine], the IC50 on hERG potassium channels (hERG IC50, SyncroPatch) was 5 to 10 µM; in the assay on H3K9me2 in HCT116 cells, under 100 nM; at human EHMT2 913-1193 it was under 100 nM; on human EHMT1 982-1266 it was under 100 nM.

Take `CNc1cc(C)nc(Nc2cc3c(c(C4=CCNCCC4)c2Cl)OCCO3)n1` [Compound 166, N2-[6-chloro-5-(2,3,4,7-tetrahydro-1H-azepin-5-yl)-2,3-dihydro-1,4-benzodioxin-7-yl]-N4,6-dimethyl-pyrimidine-2,4-diamine]: the IC50 is under 2 µM at hERG potassium channels (hERG IC50, SyncroPatch); under 100 nM with H3K9me2 in HCT116 cells; under 100 nM at human EHMT2 913-1193; under 100 nM at human EHMT1 982-1266.

For `CNc1cc(C)nc(Nc2cc3c(c(C4=CCNCCC4)c2F)OCC32CC2)n1` [Compound 172], the IC50 at hERG potassium channels (hERG IC50, SyncroPatch) was 2 to 5 µM; in the assay with H3K9me2 in HCT116 cells, under 100 nM; at human EHMT2 913-1193, under 100 nM; at human EHMT1 982-1266, under 100 nM.

Regarding `CNc1cc(C)nc(Nc2cc3c(c(C4=CCNCCC4)c2Cl)OCCC3)n1` [Compound 175], the half-maximal inhibitory concentration (IC50) at hERG potassium channels (hERG IC50, SyncroPatch) is 5 to 10 µM; in the assay with H3K9me2 in HCT116 cells, under 100 nM; on human EHMT2 913-1193, under 100 nM; at human EHMT1 982-1266 it was under 100 nM.

Regarding `CNc1cc(C)nc(Nc2cc3c(c(C4=CCN(C)CCC4)c2Cl)OCCC3)n1` [Compound 176], the IC50 at hERG potassium channels (hERG IC50, SyncroPatch) is 2 to 5 µM; with H3K9me2 in HCT116 cells it was under 100 nM; on human EHMT2 913-1193 it was under 100 nM; at human EHMT1 982-1266, under 100 nM.

`CNc1cc(C)nc(Nc2cc3c(c(C4=CCNCC(O)C4)c2F)OCC3)n1` (stereo not drawn) [Compound 179, 5-[6-fluoro-5-[[4-methyl-6-(methylamino)pyrimidin-2-yl]amino]-2,3-dihydrobenzofuran-7-yl]-2,3,4,7-tetrahydro-1H-azepin-3-ol]: the IC50 against hERG potassium channels (hERG IC50, SyncroPatch) was over 10 µM; in the assay on H3K9me2 in HCT116 cells it was under 100 nM; at human EHMT2 913-1193, under 100 nM; on human EHMT1 982-1266, under 100 nM.

In the case of `CNc1cc(C)nc(Nc2cc3c(c(C4=CCN(C)CC(O)C4)c2F)OCC3)n1` (stereo not drawn) [Compound 180], the IC50 at hERG potassium channels (hERG IC50, SyncroPatch) is over 10 µM; in the assay with H3K9me2 in HCT116 cells, under 100 nM; on human EHMT2 913-1193, under 100 nM; on human EHMT1 982-1266, under 100 nM.

Turning to `CNc1cc(C)nc(Nc2c(F)c3c(c(C4=CCNCCC4)c2F)OCC3)n1` [Compound 187], the half-inhibitory concentration (IC50) against hERG potassium channels (hERG IC50, SyncroPatch) is over 10 µM; with H3K9me2 in HCT116 cells it was under 100 nM; at human EHMT2 913-1193, 100 to 500 nM; on human EHMT1 982-1266, under 100 nM.
